pKd: −log10 of the molar value.
What was measured:
JAK2 = molecular target: T1, JAK2 (Homo sapiens, UniProt O60674); assay: Kinomescan active site-directed competition kinase binding assay; settings: read-out: Percent Control at 10 µM (Lower Numbers Indicate Stronger Hits)
T1 construct: purchased Discoverx (Kinomescan)
Protocol: (§1) Kinase assays were performed using Kinomescan, by Discoverx, CA, USA and Caliper LabChip 3000 by Caliper Life sciences, USA as described by us previously. The determination of Mebendazole (MBZ) thermodynamic binding affinities (Kd) to kinase targets predicted by ES-Screen was performed by using active site-directed competition binding. Kinase-tagged T7 phage strains were grown in parallel in 24-well blocks in an E. coli host derived from the BL21 strain. E. coli bacteria were grown to log-phase and infected with T7 phage from a frozen stock (multiplicity of infection = 0.4) and incubated with shaking at 32 °C until lysis (90–150 min). The lysates were centrifuged (6000× g) and filtered (0.2 μm sieves) to remove cell debris. The remaining kinases were produced in HEK-293 cells and subsequently tagged with DNA for qPCR detection. […] The liganded beads were blocked with excess biotin and washed with blocking buffer (SeaBlock (Pierce), 1% BSA, 0.05% Tween 20, 1 mM DTT) to remove unbound ligands and to reduce non-specific phage binding. Binding reactions were assembled by combining kinases, control liganded affinity beads, and mebendazole in 1× binding buffer (20% SeaBlock, 0.17 × PBS, 0.05% Tween 20, 6 mM DTT). Mebendazole was prepared as 40× stocks in 100% DMSO and directly diluted into the assay. All reactions were performed in polypropylene 384-well plates in a final volume of 0.04 mL. The assay plates were incubated at room temperature with shaking for 1 h and the affinity beads were washed with wash buffer (1 × PBS, 0.05% Tween 20). […] The kinase concentration in the eluates was measured by qPCR. Ligands that bind the kinase active site and directly prevent kinase binding to the immobilized ligand will reduce the amount of kinase captured. […] The amount of kinase captured in test versus control samples were measured by using a quantitative, precise and ultra-sensitive qPCR method that detects the associated DNA label. Using the primary screen binding interactions are reported as ‘% Ctrl’ (Percent kinase remaining activity, Equation (8)), where lower numbers indicate stronger hits. (8) Percent Control (%Ctrl)=Mebendazole signal − Positive control signal/DMSO Negative control signal − Positive control signal × 100
(§2) In a similar manner, binding constants (Kd) for mebendazole-kinase interactions are calculated by measuring the amount of kinase captured as a function of the mebendazole concentration in a dose response manner. […] Most Kds were determined using a starting concentration = 30,000 nM. […] Binding constants (Kd) were calculated with a standard dose–response curve (ligand dose (x-axis)—qPCR signal (y-axis)) using the Hill Equation (9), with the Hill Slope set to −1. […]

MKNK2 = molecular target: T2, MKNK2 (Homo sapiens, UniProt Q9HBH9); assay: as above; settings: read-out: Percent Control at 10 µM (Lower Numbers Indicate Stronger Hits)
T2 construct: purchased Discoverx (Kinomescan)
Protocol: as §1, §2

PIK3CG = molecular target: T3, PIK3CG (Homo sapiens, UniProt P48736); assay: as above; settings: read-out: Percent Control at 10 µM (Lower Numbers Indicate Stronger Hits)
T3 construct: purchased Discoverx (Kinomescan)
Protocol: as §1, §2

RAF1 = molecular target: T4, RAF1 (Homo sapiens, UniProt P04049); assay: as above; settings: read-out: Percent Control at 10 µM (Lower Numbers Indicate Stronger Hits)
T4 construct: purchased Discoverx (Kinomescan)
Protocol: as §1, §2

[1] = molecular target: T5, human adipocyte fatty acid-binding protein (FABP4) (Homo sapiens, UniProt P15090); assay: Surface Plasmon Resonance (SPR) binding assay, immobilized protein; settings: for binding to immobilized FABP4 in SPR: 200, 100, 50, 25, 12 μM, triplicates
T5 sequence (P15090 2-132): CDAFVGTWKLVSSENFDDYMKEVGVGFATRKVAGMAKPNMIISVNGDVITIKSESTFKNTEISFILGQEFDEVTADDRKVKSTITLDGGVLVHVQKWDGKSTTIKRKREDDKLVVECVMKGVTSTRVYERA
Protocol: (§3) Briefly, mouse extracellular domain 1–2 (EC 1–2) C-terminally cysteine-tagged FABP4 and Aldose Reductase recombinant protein was immobilized on flow cell (FC) 2 in HEPES buffered saline (10 mM Hepes, pH 7.4, and 150 mM NaCl, 3 mM CaCl2) using a thiol-coupling kit according to the manufacturer’s protocol, resulting in immobilization levels of 4580 response units (RU). FC1 was only activated and inactivated and used as a reference. […] Each injection was repeated three times for 60 s. FC1 signals were deducted from FC2 for background noise elimination.

[2] = molecular target: human aldose reductase (AKR1B1) (Homo sapiens, UniProt P15121); assay: as above; settings: for binding to immobilized AKR1B1 in SPR: 200, 100, 50, 25, 12 μM, triplicates
Protocol: as §3

T1 sequence (O60674 840-1132 limits assumed): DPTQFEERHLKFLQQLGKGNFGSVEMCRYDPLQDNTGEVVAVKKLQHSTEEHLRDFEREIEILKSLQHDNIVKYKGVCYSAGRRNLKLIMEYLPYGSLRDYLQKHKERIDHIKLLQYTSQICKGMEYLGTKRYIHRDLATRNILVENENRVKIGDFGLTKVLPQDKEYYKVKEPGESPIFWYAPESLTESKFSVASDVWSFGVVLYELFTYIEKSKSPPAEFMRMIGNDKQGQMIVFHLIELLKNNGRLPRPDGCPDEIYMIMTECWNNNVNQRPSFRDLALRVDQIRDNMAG
T4 sequence (P04049 whole entry): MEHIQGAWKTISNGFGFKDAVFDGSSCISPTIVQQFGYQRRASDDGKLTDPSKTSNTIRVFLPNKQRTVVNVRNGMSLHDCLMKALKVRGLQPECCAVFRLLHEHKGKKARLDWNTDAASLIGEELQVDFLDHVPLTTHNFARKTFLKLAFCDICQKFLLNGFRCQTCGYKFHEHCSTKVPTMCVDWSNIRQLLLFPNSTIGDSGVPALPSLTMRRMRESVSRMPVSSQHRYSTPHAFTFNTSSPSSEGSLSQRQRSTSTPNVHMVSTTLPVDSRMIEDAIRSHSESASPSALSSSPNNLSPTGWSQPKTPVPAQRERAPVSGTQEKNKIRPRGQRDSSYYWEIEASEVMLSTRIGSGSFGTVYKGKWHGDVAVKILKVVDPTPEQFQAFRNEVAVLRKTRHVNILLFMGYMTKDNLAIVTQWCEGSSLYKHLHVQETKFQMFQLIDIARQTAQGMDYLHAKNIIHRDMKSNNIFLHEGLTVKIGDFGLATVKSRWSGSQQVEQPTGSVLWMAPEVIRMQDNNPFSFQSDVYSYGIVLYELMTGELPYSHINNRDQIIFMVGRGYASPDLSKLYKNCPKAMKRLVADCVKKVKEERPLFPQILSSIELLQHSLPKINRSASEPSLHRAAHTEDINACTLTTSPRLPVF
T2 sequence (Q9HBH9 whole entry): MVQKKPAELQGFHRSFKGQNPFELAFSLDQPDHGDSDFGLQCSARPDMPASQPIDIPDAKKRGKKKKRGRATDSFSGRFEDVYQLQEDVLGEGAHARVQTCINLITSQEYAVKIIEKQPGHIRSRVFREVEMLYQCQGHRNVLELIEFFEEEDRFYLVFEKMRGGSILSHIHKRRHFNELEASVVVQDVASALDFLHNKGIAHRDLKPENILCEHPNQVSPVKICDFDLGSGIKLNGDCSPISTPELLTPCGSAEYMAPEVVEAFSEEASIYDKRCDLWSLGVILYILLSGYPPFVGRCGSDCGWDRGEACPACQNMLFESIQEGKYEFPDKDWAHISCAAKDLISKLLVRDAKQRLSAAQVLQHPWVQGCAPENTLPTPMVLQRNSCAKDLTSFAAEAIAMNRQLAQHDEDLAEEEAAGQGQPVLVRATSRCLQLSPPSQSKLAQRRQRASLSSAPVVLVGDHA
T3 sequence (P48736 whole entry): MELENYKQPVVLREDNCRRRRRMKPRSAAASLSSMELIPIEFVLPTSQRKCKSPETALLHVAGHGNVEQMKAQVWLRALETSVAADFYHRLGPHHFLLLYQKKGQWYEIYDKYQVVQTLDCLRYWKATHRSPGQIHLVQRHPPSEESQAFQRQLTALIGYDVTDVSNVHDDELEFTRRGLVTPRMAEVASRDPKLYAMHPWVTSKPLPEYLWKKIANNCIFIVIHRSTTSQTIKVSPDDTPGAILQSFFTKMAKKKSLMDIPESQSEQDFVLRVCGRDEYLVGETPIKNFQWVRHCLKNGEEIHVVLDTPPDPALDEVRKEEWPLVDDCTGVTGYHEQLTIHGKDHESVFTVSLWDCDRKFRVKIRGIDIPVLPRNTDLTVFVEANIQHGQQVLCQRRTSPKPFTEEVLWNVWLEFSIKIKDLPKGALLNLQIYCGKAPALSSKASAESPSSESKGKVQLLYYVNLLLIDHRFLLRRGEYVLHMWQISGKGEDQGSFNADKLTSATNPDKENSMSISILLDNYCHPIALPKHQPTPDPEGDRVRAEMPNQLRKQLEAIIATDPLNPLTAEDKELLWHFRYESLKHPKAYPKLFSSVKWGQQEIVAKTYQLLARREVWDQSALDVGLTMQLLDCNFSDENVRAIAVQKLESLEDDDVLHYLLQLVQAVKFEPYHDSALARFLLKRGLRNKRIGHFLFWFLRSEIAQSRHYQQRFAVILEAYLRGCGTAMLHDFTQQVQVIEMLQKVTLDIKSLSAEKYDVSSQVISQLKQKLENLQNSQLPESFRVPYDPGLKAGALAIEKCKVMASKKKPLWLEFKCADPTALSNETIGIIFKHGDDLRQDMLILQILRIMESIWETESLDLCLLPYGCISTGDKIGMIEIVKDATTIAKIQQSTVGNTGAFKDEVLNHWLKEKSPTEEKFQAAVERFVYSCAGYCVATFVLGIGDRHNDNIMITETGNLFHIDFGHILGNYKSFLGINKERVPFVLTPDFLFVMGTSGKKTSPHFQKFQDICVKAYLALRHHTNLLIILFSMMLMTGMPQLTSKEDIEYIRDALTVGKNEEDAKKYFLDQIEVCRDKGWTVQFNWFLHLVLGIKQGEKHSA

| percent of control kinase binding at 10 µM (JAK2) | remaining binding at 10 µM (MKNK2) | remaining binding at 10 µM (PIK3CG) | remaining binding at 10 µM (RAF1) | binding to immobilized FABP4 in SPR [1] | pKd ([1]; SPR, FABP4, read-out: KD50) | binding to immobilized AKR1B1 in SPR [2] | pKd ([2]; SPR, AKR1B1, read-out: KD50) | SMILES |
| --- | --- | --- | --- | --- | --- | --- | --- | --- |
| – | – | – | – | in a dose-dependent manner | – | in a dose-dependent manner | – | CC1(C)Cc2c(-c3ccccc3)c(-c3ccc(Cl)cc3)c(CC(=O)O)n2C1 [licofelone] |
| – | – | – | – | in a dose-dependent manner | – | in a dose-dependent manner | – | O=C(O)CCc1nc(-c2ccccc2)c(-c2ccccc2)o1 [oxaprozin] |
| – | – | – | – | in a dose-dependent manner | – | in a dose-dependent manner | – | COc1ccc2c(c1)c(CC(=O)O)c(C)n2C(=O)c1ccc(Cl)cc1 [indomethacin] |

| SMILES | percent of control kinase binding at 10 µM (JAK2) | remaining binding at 10 µM (MKNK2) | remaining binding at 10 µM (PIK3CG) | remaining binding at 10 µM (RAF1) | binding to immobilized FABP4 in SPR [1] | pKd ([1]; SPR, FABP4, read-out: KD50) | binding to immobilized AKR1B1 in SPR [2] | pKd ([2]; SPR, AKR1B1, read-out: KD50) |
| --- | --- | --- | --- | --- | --- | --- | --- | --- |
| COC(=O)Nc1nc2ccc(C(=O)c3ccccc3)cc2[nH]1 [mebendazole] | 39% | 46% | 18% | 23% | bind directly, in a dose-dependent manner | 5.08 | bind directly, in a dose-dependent manner | 5.26 |

— publication PMC9736079, “ES-Screen: A Novel Electrostatics-Driven Method for Drug Discovery Virtual Screening” (International Journal of Molecular Sciences, 2022)
